Each structure is given as a SMILES string.

Test [1] concerns the target T1, JAK3 enzyme (Homo sapiens, UniProt P52333).
T1 sequence (P52333 1-1124): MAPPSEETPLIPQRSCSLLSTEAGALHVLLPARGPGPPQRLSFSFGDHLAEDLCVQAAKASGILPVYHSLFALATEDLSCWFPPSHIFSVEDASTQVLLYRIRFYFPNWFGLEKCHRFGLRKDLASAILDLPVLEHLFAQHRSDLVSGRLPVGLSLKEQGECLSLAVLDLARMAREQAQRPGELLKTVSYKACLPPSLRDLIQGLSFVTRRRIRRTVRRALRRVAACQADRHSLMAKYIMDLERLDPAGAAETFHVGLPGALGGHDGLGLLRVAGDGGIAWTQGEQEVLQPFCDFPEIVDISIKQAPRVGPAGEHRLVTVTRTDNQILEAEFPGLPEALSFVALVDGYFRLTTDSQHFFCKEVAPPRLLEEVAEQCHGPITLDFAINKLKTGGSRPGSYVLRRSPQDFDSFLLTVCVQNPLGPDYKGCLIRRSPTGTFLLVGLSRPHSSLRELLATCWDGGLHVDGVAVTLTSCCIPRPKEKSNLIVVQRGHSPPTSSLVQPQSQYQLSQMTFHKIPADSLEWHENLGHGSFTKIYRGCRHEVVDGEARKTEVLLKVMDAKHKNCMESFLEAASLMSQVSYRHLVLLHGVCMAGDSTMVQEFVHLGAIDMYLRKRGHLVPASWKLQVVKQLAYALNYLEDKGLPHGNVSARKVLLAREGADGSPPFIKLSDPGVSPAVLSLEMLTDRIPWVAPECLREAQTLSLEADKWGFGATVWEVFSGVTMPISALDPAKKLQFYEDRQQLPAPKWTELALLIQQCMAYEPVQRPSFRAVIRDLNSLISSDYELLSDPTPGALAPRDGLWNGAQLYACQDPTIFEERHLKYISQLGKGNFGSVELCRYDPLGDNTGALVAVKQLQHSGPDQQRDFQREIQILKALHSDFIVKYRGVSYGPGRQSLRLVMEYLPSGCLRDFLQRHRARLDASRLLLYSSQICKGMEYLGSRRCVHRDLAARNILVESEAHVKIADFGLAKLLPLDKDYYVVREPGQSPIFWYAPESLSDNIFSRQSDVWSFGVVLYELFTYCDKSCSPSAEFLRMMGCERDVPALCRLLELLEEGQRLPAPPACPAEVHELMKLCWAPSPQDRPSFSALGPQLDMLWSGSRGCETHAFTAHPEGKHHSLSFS
Briefly: JAK Caliper Enzyme Assay at 4 μM ATP. The class given is biochemical. The method, boiled down: (§1)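 Kinase activity is measured by separating phosphorylated from unphosphorylated peptide on a microfluidic chip. Per enzyme batch, protein concentration and incubation time are optimized to give 20%-30% substrate turnover.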

Test [2] has as its target T1, JAK3 enzyme. Briefly: JAK Caliper Enzyme Assay at 1 mM ATP. The format is biochemical. The method, boiled down:
as §1

The subject of test [3] is IL-15 induced STAT5 phosphorylation in human whole blood lymphocytes. The experiment in a line: HWB IL-15 Induced STAT5 Phosphorylation Assay. The following applies: Lymphocyte, IL-15 final 50 ng/ml, read-out: HWB_IL15 pSTAT5 IC50. The format is cell-based. Here is the method:
HWB IL-15 Induced STAT5 Phosphorylation Assay
After serial dilution of the test compounds 1:2 in DMSO at desired concentration (500× of final), the compounds were further diluted in PBS (by adding 4 μL compound/DMSO in 96 μL PBS, [DMSO]=4%, 20× final). To 96-well polypropylene plates were added 90 μl HWB (heparin treated Human Whole Blood)/well, followed by 5 μl/well 4% DMSO in D-PBS or various concentrations of 20× inhibitor in 4% DMSO in D-PBS (w/o Ca^+2 or Mg^+2) to give 1× in 0.2% DMSO. After mixing and incubating for 45 minutes at 37° C., 5 μl D-PBS (unstimulated control) or 20× stocks of 5 μl human IL-15 (final concentration is 50 ng/ml) were added, and mixed three times. After incubating 15 minutes at 37° C., 1× Lyse/Fix Buffer (BD Phosflow 5× Lyse/Fix Buffer) was added to all wells at 1000 μl/well, then incubated for 20 minutes at 37° C. and spun 5 mins at 1200 rpm. After washing in 1000 μl FACS buffer 1× and spinning for 5 mins at 1200 rpm, 400 μl ice cold Perm Buffer III were added to each well. After mixing gently (1-2×) and incubating on ice for 30 minutes, spinning for 5 mins at 1200 rpm without interruption, and washing 1× in cold […] FACS buffer (D-PBS containing 0.1% BSA and 0.1% sodium azide) 250 μl/well of the desired AlexaFluor647-conjugated anti-phospho STATS antibody at 1:125 dilution in FACS buffer was added. Following incubating at 4° C. over night, all the samples were transferred to 96-well polypropylene U-bottom plate, and checked by flow cytometry gated on total lymphocytes.

Test [4] relates to IL-15 induced P-STAT5 in human PBMC. The experiment in a line: PBMC IL-15 Induced P-STAT5. The format is cell-based. To be noted: human PBMC, IL-15 final 41 ng/mL; read-out: PBMC IL15_pSTAT5_IC50. In short, it runs like this:
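Flow cytometry gated on total lymphocytes measured STAT5 staining (Alexa Fluor 647 antibody, overnight, 4 °C) in fixed, methanol-permeabilised human PBMC. Cells had received compound for 15 min at 37 °C (0.2% DMSO final), followed by 41 ng/mL final human IL-15 for 15 min.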

In the case of `C=CC(=O)N1CCN(c2cnc3[nH]cc(C(=O)NCC4CCCC4)c3n2)CC1` [Example 266, 2-(4-acryloylpiperazin-1-yl)-N-(cyclopentylmethyl)-5H-pyrrolo[2,3-b]pyrazine-7-carboxamide], the IC50 stood at 0.2 nM against JAK3 enzyme [1], 22 nM at JAK3 enzyme [2], 528 nM in test [3] and 64.2 nM in test [4].

As for `C=CC(=O)N1CC[C@@H](Nc2cnc3[nH]cc(C(=O)NCCC(F)(F)F)c3n2)[C@@H](OC)C1` [Example 278, 2-{[(3S,4R)-1-acryloyl-3-methoxypiperidin-4-yl]amino}-N-(3,3,3-trifluoropropyl)-5H-pyrrolo[2,3-b]pyrazine-7-carboxamide], the IC50 is 1.23 nM on JAK3 enzyme [1], 70 nM against JAK3 enzyme [2], 2460 nM in test [3] and 272 nM in test [4].

As for `C=CC(=O)N1CCC(Nc2cnc3[nH]cc(C(=O)NCc4scnc4C(F)(F)F)c3n2)CC1` [Example 185, 2-[(1-acryloylpiperidin-4-yl)amino]-N-{[4-(trifluoromethyl)-1,3-thiazol-5-yl]methyl}-5H-pyrrolo[2,3-b]pyrazine-7-carboxamide], the IC50 against JAK3 enzyme [1] turned out to be 0.372 nM; at JAK3 enzyme [2], 6 nM; in test [3], 542 nM; in test [4] it was 73 nM.

Take `C=CC(=O)N1CC[C@@H](Nc2cnc3[nH]cc(C(=O)NCC4CCCC4)c3n2)[C@@H](OC)C1` [Example 313, 2-{[(3S,4R)-1-acryloyl-3-methoxypiperidin-4-yl]amino}-N-(cyclopentylmethyl)-5H-pyrrolo[2,3-b]pyrazine-7-carboxamide]: the IC50 against JAK3 enzyme [1] was 0.736 nM; against JAK3 enzyme [2], 46 nM; in test [3] it was 986 nM; in test [4], 243 nM.

For the compound `C=CC(=O)N1CCN(c2cnc3[nH]cc(C(=O)NC4CCCOC4)c3n2)CC1(C)C` (racemic) [Example 149, Racemic-2-(4-acryloyl-3,3-dimethylpiperazin-1-yl)-N-(tetrahydro-2H-pyran-3-yl)-5H-pyrrolo[2,3-b]pyrazine-7-carboxamide], the IC50 on JAK3 enzyme [1] was determined as 0.565 nM; against JAK3 enzyme [2] it was 134 nM; in test [3], 4240 nM; in test [4], 163 nM.

For `C=CC(=O)N1CCN(c2cnc3[nH]cc(C(=O)N[C@H](CC)CC#N)c3n2)CC1` [Example 315, 2-(4-acryloylpiperazin-1-yl)-N-[(2R)-1-cyanobutan-2-yl]-5H-pyrrolo[2,3-b]pyrazine-7-carboxamide], the IC50 on JAK3 enzyme [1] was 0.348 nM; at JAK3 enzyme [2] it was 26 nM; in test [3], 211 nM; in test [4] it was 74.9 nM.

Consider `C=CC(=O)N1CC[C@@H](Nc2cnc3[nH]cc(C(=O)N[C@@H]4C[C@H]4C(F)(F)F)c3n2)[C@@H](OC)C1` [Example 316, 2-{[(3S,4R)-1-acryloyl-3-methoxypiperidin-4-yl]amino}-N-[(1R,2R)-2-(trifluoromethyl)cyclopropyl]-5H-pyrrolo[2,3-b]pyrazine-7-carboxamide], for which the IC50 worked out at 0.643 nM against JAK3 enzyme [1], 129 nM on JAK3 enzyme [2], 1450 nM in test [3] and 294 nM in test [4].

As for `C=CC(=O)N1CCN(c2cnc3[nH]cc(C(=O)N[C@H](CC)CC#N)c3n2)CC1(C)C` [Example 318, 2-(4-acryloyl-3,3-dimethylpiperazin-1-yl)-N-[(2R)-1-cyanobutan-2-yl]-5H-pyrrolo[2,3-b]pyrazine-7-carboxamide], the IC50 at JAK3 enzyme [1] stood at 0.535 nM; on JAK3 enzyme [2], 59 nM; in test [3] it was 1760 nM; in test [4] it was 214 nM.

With `C=CC(=O)N1CCC(Nc2cnc3[nH]cc(C(=O)NCc4ccc(OC(F)F)cc4)c3n2)CC1` [Example 181, 2-[(1-acryloylpiperidin-4-yl)amino]-N-[4-(difluoromethoxy)benzyl]-5H-pyrrolo[2,3-b]pyrazine-7-carboxamide], the IC50 at JAK3 enzyme [1] was 0.379 nM; against JAK3 enzyme [2], 5 nM; in test [3], 1820 nM; in test [4], 159 nM.

Values taken from patent publication US10703756B2, “Pyrrolo[2,3-D]pyrimidinyl, pyrrolo[2,3-B]pyrazinyl, pyrrolo[2,3-B]pyridinyl acrylamides and epoxides thereof” (Pfizer Inc., priority 2015, dated 2020).
